The values that follow come from publication PMC12782889, “A GmNRF5a–GmCERK1–GmCAK1 module mediates chitin/chitosan‐triggered immune response in soybean” (Journal of Integrative Plant Biology, 2025).

The test system of this experiment is soybean leaf discs (ROS burst). As to the kind of experiment: Luminol-based ROS burst assay in soybean leaf discs. Format: cell-based, soybean (Glycine max). The note with it: 50 mg/L, leaf discs of soybean Williams, dH2O negative control. Here is the method:
To measure the oxidation burst, leaf discs (Ø 0.5 cm) collected from 2-week-old soybean (cultivar Williams) were floated overnight in 200 μL sterile H2O in a 96-well plate. The H2O was replaced with 200 μL reaction buffer containing luminol/peroxidase ([…] luminol, 10 mg/mL peroxidase) and chitooligosaccharides treatments (50 mg/L). flg22 was used as a positive control. The luminescence was measured using a GLOMAX96 microplate luminometer (Promega, Madison, WI, USA). The experiments for MAPK activation were carried out as described previously ([[…] et al., 2014]). The MAPK activation was determined by immunoblots with anti-phospho-p44/42 MAPK antibody (#4370; Cell Signaling, Boston, MA, USA).

Each structure is given as a SMILES string.

For the compound `CC(=O)N[C@@H]1[C@@H](O)[C@H](O[C@@H]2O[C@H](CO)[C@@H](O[C@@H]3O[C@H](CO)[C@@H](O[C@@H]4O[C@H](CO)[C@@H](O[C@@H]5O[C@H](CO)[C@@H](O)[C@H](O)[C@H]5NC(C)=O)[C@H](O)[C@H]4NC(C)=O)[C@H](O)[C@H]3NC(C)=O)[C@H](O)[C@H]2NC(C)=O)[C@@H](CO)O[C@H]1O` [Chitin oligosaccharide (dp5), chitin oligosaccharide], the ROS burst result was “stronger ROS burst than that of CTOS (dp4)”.
